Data as given in doi:10.1101/2021.09.10.459855v1 (bioRxiv, 2021).

Tests used:
[1] = tested on: MHC II and CD86 on LPS-activated DCs; assay: DC surface marker expression, MHC II+CD86+ population; assay type: cell-based, mouse; conditions: 24 hours, 100 μM
[2] = tested on: LPS-activated DC TNF-α secretion; assay: DC TNF-α secretion; assay type: cell-based, mouse; conditions: for Decrease of DC TNF-α secretion: 6 hours
[3] = tested on: LPS-activated Mφ TNF-α secretion (mouse RAW 264.7); assay: Mφ TNF-α secretion; assay type: cell-based; conditions: 6 hours
Micelle surface charge = assay type: physicochemical; conditions: 100 μM in deionized, distilled water (ddH2O); Malvern DLS Zetasizer
[4] = tested on: LPS-activated DC CCL22 production; assay: DC CCL22 production; assay type: cell-based, mouse
[5] = Micelle morphology by negative-stain TEM; assay type: physicochemical

## Vasoactive intestinal peptide [VIP]
[1]
  MHC II and CD86 surface markers on DCs: failed to downregulate MHC II and CD86
[2]; 10 μM
  Decrease of DC TNF-α secretion: slightly
[2]; 100 μM
  Decrease of DC TNF-α secretion: more extensively
[2]; 24 hours, 1 μM and 10 μM, versus LPS alone
  DC TNF-α secretion: suppressed TNF-α generation
[3]; 100 μM
  Mφ TNF-α secretion: cytokine secretion was suppressed
[3]; concentration-dependent (0.1 - 100 μM), versus LPS alone
  Mφ TNF-α secretion: mild to moderate TNF-α suppression
Micelle surface charge
  Zeta potential: 6.82 ± 0.67 mV
[4]; 1 μM and 10 μM (Figure S7)
  DC CCL22 production: reduced CCL22 production
[4]; 100 μM (Figure S7)
  DC CCL22 production: enhanced CCL22 expression
[5]; 100 μM (highest concentration)
  Aggregation / particle morphology: aggregate into spherical nanoparticles
[5]; lower concentrations than 100 μM (data not shown)
  Particle formation: no particle formation was observed
